Data set [1] in a line: Kinetic solubility (KSol). The format is physicochemical.
Data set [2] in a line: Thermodynamic solubility assay. The format is physicochemical. Particulars: aqueous buffer, thermodynamic from solid, PBS buffer pH 7.4, read-out: TSol. The method, then: Test compound (˜0.5 mg, accurately weighed) was suspended in PBS buffer pH 7.4 (Dulbecco A) to a concentration of 1 mg/mL in a high recovery glass vial in duplicate. The suspensions were shaken at 300 rpm at rt for 64 h. About 250 μL of suspension were then transferred to a MultiScreen® Solubility filter plate (Millipore) in duplicate. Concentrations of the filtrates were then quantified against a 5-point calibration curve in a mixture of acetonitrile/PBS buffer (top concentration […]). After filtration and matrix match, the calibration and assay plates were analysed on a Bioteck Synergy 4 plate reader (240-400 nm). Final concentration of the test compound in the filtrate was calculated using the slope of the calibration curve.

A further data set in a line: In vivo mouse PK. To be noted: C57BL/6N mice, IV 1 mg/kg.

`C[C@H](CC(F)(F)F)C(=O)N1CC[C@@](O)(Cn2cnc(-c3ccccc3)cc2=O)C2(CCCC2)C1` [F 11 9 N W 11]: the KSol in data set [1] turned out to be 1 µM.
For `N[C@@H]1CCN(C(=O)N2CC[C@@](O)(Cn3cnc(-c4ccccc4)cc3=O)C3(CCCC3)C2)[C@H](c2ccccc2)C1` [F 11 9 N W032, reference compound], the solubility thermodynamic at 64 h in data set [2] was 1 µM. This compound also had a clearance in the data set “In vivo mouse PK” of 3 mL/min/kg. In addition, the half-life in “In vivo mouse PK” (read-out: IV t1/2 (converted)) was 2 h.

What is called clearance is a measure of how efficiently the substance is removed, as volume per time.
